This note sets out measurements from patent US7799775B2, “Pyrimidine derivatives” (ASKA Pharmaceutical Co., Ltd., priority 2004, dated 2010).

The inhibition is the percentage by which the read-out fell short of the control.

Counter-ions that a name gives are not always drawn.

The target of one experiment is T1, human 5-HT1A receptor (Homo sapiens, UniProt P08908).
T1 construct: purchased Packard Bioscience; host or cells: CHO cells (membrane preparation)
T1 sequence (P08908 1-422): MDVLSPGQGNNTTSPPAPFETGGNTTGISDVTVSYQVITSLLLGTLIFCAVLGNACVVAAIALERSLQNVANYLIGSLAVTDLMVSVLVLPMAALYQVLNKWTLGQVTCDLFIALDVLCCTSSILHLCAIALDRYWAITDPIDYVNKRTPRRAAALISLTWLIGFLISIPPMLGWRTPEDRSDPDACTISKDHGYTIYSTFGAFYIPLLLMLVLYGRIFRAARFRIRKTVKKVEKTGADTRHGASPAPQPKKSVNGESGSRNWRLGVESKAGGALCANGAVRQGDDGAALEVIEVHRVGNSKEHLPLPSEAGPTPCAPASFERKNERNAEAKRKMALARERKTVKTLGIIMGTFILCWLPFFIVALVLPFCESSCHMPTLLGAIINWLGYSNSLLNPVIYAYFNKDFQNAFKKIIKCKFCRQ
The experiment in a line: Affinity measurement of the compounds to human 5-HT1A receptor (in vitro), [3H]8-OH-DPAT binding. Particulars: test compound 100 nmols/L; [3H]8-OH-DPAT 0.25 nmols/L; CHO cell membrane expressing human 5-HT1A receptor; read-out: Percent Inhibition (%) on Each Receptor's Binding at 10^−7M, 5-HT1A. The procedure: (1) Affinity Measurement of the Compounds to Human 5-HT1A Receptor (in Vitro)
CHO cell membrane sample in which human 5-HT1A receptor was expressed (purchased from Packard Bioscience) 0.25 mL (about 50 units) was added to 24.75 mL of incubation buffer solution A (an aqueous solution of a mixture of 50 mmols/L of Tris-hydrochloric acid, 10 mmols/L of magnesium sulfate, 0.5 mmols/L of EDTA and 0.1% ascorbic acid, whose pH was adjusted to 7.4 at 27° C. with 1N-aqueous sodium hydroxide solution), and labeled as membrane sample suspension A. Separately, each test compound was made into 270 μmols/L DMSO solution and diluted to a prescribed concentration with the incubation buffer solution A, to provide a compound solution.
A piece of polypropylene tube was charged with 20 μL of [^3H]8-OH-DPAT (8-hydroxy-2-(di-n-propylamino)tetralin; purchased from Daiichi Pure Chemicals Co., Ltd.) (The concentration of the [^3H]8-OH-DPAT had been advancedly adjusted to render its concentration in the reaction mixture to 0.25 nmols/L) and 20 μL of one of the compound solutions. Further 500 μL of the membrane sample suspension A was added into the tube, followed by 60 minutes' incubation at 27° C. The reaction was terminated by rapid filtration of the reaction mixture through GF/C filter which had been advancedly immersed in a solution formed by adding to the incubation buffer solution A polyethyleneimine to a concentration of 0.3%, using Brandel cell harvester. Then the filter was washed with about 5 mL of 50 mmols/L of Tris-hydrochloric acid which had been cooled to 4° C. The filter was once again washed after similar operation.
Residual radioactivity on the filter was measured with liquid scintillation counter (Aloka Co., LSC-5100). Percent inhibition (%) of each test compound to binding of [^3H]8-OH-DPAT to 5-HT1A receptor at a concentration of 0.25 nmols/L, i.e., affinity of each test compound to 5-HT1A receptor, can be calculated according to the following expression. The ratio of non-specific binding was calculated by measuring the radioactivity in case of using 8-OH-DPAT at a concentration of 10 μmols/L, with which value the measured value of each test compound was compensated.
(§1) Affinity of each test compound to 5-HT1A receptor and 5-HT3 receptor at a concentration of 100 nmols/L were as shown in the following Tables A-1 and A-2. BRL-43694 and tropisetron (ICS 205-930), which were used in measuring affinity of those compounds to 5-HT3 receptor, have the following structures: […]

In the next experiment the target is T2, human 5-HT3 receptor (Homo sapiens, UniProt P46098).
T2 construct: purchased BIOLINKS K.K; host or cells: HEK-293 cells (membrane preparation)
T2 sequence (P46098 24-478): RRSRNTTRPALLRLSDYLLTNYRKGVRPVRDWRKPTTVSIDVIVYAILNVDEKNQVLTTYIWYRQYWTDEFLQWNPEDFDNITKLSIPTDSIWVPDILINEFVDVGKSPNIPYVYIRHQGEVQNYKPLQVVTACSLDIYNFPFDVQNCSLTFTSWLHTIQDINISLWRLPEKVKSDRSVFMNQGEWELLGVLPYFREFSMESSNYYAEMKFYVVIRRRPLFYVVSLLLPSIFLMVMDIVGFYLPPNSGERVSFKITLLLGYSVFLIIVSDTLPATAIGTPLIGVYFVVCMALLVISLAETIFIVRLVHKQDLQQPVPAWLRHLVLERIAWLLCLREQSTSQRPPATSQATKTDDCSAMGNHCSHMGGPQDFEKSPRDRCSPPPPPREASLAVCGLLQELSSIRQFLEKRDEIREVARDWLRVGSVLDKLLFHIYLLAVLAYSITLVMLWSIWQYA
Nature of the experiment: Measurement of affinity to human 5-HT3 receptor (in vitro), [3H]BRL-43694 binding. Particulars: test compound 100 nmols/L; [3H]BRL-43694 0.5 nmols/L; HEK-293 cell membrane expressing human 5-HT3 receptor; read-out: Percent Inhibition (%) on Each Receptor's Binding at 10^−7M, 5-HT3. On the procedure:
(2) Measurement of Affinity of Each Test Compound to Human 5-HT3 Receptor (in Vitro):
HEK-293 cell membrane sample in which human 5-HT3 receptor was expressed (purchased from BIOLINKS K.K.) 0.05 mL (about 50 microassay) was added to 24.95 mL of incubation buffer solution B (an aqueous solution of a mixture of 50 mmols/L of Tris-hydrochloric acid, 5 mmols/L of magnesium chloride and 1 mmol/L of EDTA, whose pH was adjusted to 7.5 at 25° C. with 1N-aqueous sodium hydroxide solution) and homogenized, to provide a membrane sample suspension B. Separately, each test compound was made into 270 μmols/L of DMSO solution and diluted to a prescribed concentration with the incubation buffer solution B to provide a compound solution.
A piece of polypropylene tube was charged with 20 μL of [^3H]BRL-43694 (purchased from Daiichi Pure Chemicals Co., Ltd.) (The concentration of [^3H]BRL-43694 had been advancedly adjusted to render its concentration in the reaction mixture to 0.5 nmols/L.) and 20 μL of one of the compound solutions. Further 500 μL of the membrane sample suspension B was added into the tube, followed by 60 minutes' incubation at 25° C. The reaction was terminated by rapid filtration of the reaction mixture through GF/B filter which had been advancedly immersed in a solution formed by adding to the incubation buffer solution B polyethyleneimine to a concentration of 0.5%, using Brandel cell harvester. Then the filter was washed with about 5 mL of 50 mmols/L of Tris-hydrochloric acid which had been cooled to 4° C. The filter was once again washed after similar operation.
Residual radioactivity on the filter was measured with liquid scintillation counter (ALOKA CO., LTD. LSC-5100). Percent inhibition (%) of each test compound to binding of [^3H]BRL-43694 to 5-HT3 receptor at a concentration of 0.5 nmols/L, i.e., affinity of each test compound to 5-HT3 receptor, can be calculated according to the following expression. The ratio of non-specific binding was calculated by measuring the radioactivity in case of using tropisetron: (ICS 205-930) at a concentration of 10 μmols/L, with which value the measured value of each test compound was compensated.
as §1

Turning to `Fc1ccc(COc2ccc3ccnc(N4CCNCC4)c3c2)cc1` [Production Example 98, 7-(4-fluorobenzyloxy)-1-piperazin-1-ylisoquinoline], the inhibition at 0.1 µM at human 5-HT1A receptor was 88.2%; on human 5-HT3 receptor, 60.8%.
Taken in the same sequence, the figures for `CN1CCN(c2nc(Cl)cc3ccccc23)CC1` [Production Example 16, 3-chloro-1-(4-methylpiperazin-1-yl)isoquinoline dihydrochloride] were 61.1% and 99.2%.
Taken in the same sequence, the figures for `COc1ccc2c(N3CCNCC3)nccc2c1` [Production Example 40, 6-methoxy-1-piperazin-1-ylisoquinoline] were 42.9% and 99.3%.
As for `CCCn1c(CCCCN2CCN(c3ccc4ccccc4n3)CC2)nc2c(c1=O)CCCC2` [Example 7-3, 3-propyl-2-[4-(4-quinolin-2-ylpiperazin-1-yl)butyl]-5,6,7,8-tetrahydro-3H-quinazolin-4-one], the values for the inhibition at 0.1 µM at human 5-HT1A receptor and at human 5-HT3 receptor were 85.8% and 84.7%, respectively.
The like results for `CCOC(=O)c1sc2nc(SCCCN3CCN(c4ccc5ccccc5n4)CC3)n(N)c(=O)c2c1C` [Example 1-14, 3-amino-5-methyl-4-oxo-2-[3-(4-quinolin-2-ylpiperazin-1-yl)-propylthio]-3,4-dihydrothieno[2,3-d]pyrimidine-6-carboxylic acid ethyl ester] were, in that order, 99.8% and 95.9%.
For the compound `Nn1c(CCCCN2CCN(c3ccc4ccccc4n3)CC2)nc2sccc2c1=O` [Example 4-23, 3-amino-2-[4-(4-quinolin-2-ylpiperazin-1-yl)butyl]-3H-thieno[2,3-d]-pyrimidin-4-one], the inhibition at 0.1 µM on human 5-HT1A receptor is 97%; at human 5-HT3 receptor, 79.3%.
The like results for `NN1Oc2c(sc3c2CCNC3)N=C1SCCCN1CCN(c2ccc3ccccc3n2)CC1` [Example 1-59, 3-amino-2-[3-(4-quinolin-2-ylpiperazin-1-yl)propylthio]-3,4,5,6,7,8-hexahydro-4-oxa-9-thia-1,3,7-triaza-9H-fluorene trihydrochloride] were, in that order, 100% and 50%.
The like results for `NN1Oc2c(sc3c2CCCCCC3)N=C1SCCCN1CCN(c2ccc3ccccc3n2)CC1` [Example 1-24, 3-amino-2-[3-(4-quinolin-2-ylpiperazin-1-yl)propylthio]-3,4,5,6,7,8,9,10-octahydro-4-oxa-11-thia-1,3-diaza-11H-cycloocta[a]-indene] were, in that order, 95.7% and 79.6%.
The like results for `Cc1cc2c(N3CCNCC3)nccc2o1` [Production Example 25, 2-methylpiperazin-1-ylfuro[3,2-c]pyridine] were, in that order, 83.2% and 65.5%.
Take `COc1ccc2ccnc(N3CCN(C)CC3)c2c1` [Production Example 32, 7-methoxy-1-(4-methylpiperazin-1-yl)isoquinoline]: the inhibition at 0.1 µM on human 5-HT1A receptor came out at 91.7%; on human 5-HT3 receptor, 94.4%.
The like results for `COc1ccc(-n2c(CCCCN3CCN(c4ccc5ccccc5n4)CC3)nc3ccccc3c2=O)cc1` [Example 7-17, 3-(4-methoxyphenyl)-2-[4-(4-quinolin-2-ylpiperazin-1-yl)butyl]-3H-quinazolin-4-one] were, in that order, 50.6% and 1.9%.
The like results for `Cc1ccc2c(=O)n(C)c(CCCCN3CCN(c4ccc5ccccc5n4)CC3)nc2c1` [Example 7-24, 3,7-dimethyl-2-[4-(4-quinolin-2-ylpiperazin-1-yl)butyl]-3H-quinazolin-4-one] were, in that order, 78.3% and 30%.
The like results for `Cc1cc(N2CCN(CCCNc3nc4c(c(=O)[nH]3)CCCC4)CC2)nc2ccccc12` [Example 5-3, 2-[3-[4-(4-methylquinolin-2-yl)piperazin-1-yl]propylamino]-5,6,7,8-tetrahydro-3H-quinazolin-4-one] were, in that order, 76% and 74.5%.
`c1cc2occc2c(N2CCN3CCC[C@@H]3C2)n1` [Production Example 113, 4-((8aR)-octahydropyrrolo[1,2-a]pyrazin-2-yl)furo[3,2-c]pyridine]: the figures for the inhibition at 0.1 µM at human 5-HT1A receptor and on human 5-HT3 receptor were 56.4% and 82.4%, respectively.
The like results for `CCn1c(CCCCN2CCN(c3ccc4ccccc4n3)CC2)nc2c(c1=O)CC(C)CC2` (stereo not shown) [Example 7-13, 3-ethyl-6-methyl-2-[4-(4-quinolin-2-ylpiperazin-1-yl)butyl]-5,6,7,8-tetrahydro-3H-quinazolin-4-one] were, in that order, 90.2% and 93.6%.
The like results for `O=c1[nH]c(NCCCN2CCN(c3ccc4ccccc4n3)CC2)nc2c1CCCC2` [Example 5-1, 2-[3-(4-quinolin-2-ylpiperazin-1-yl)propylamino]-5,6,7,8-tetrahydro-3H-quinazolin-4-one] were, in that order, 74% and 94.8%.
The like results for `CCn1c(CCCCN2CCN(c3ccc4ccccc4n3)CC2)nc2ccccc2c1=O` [Example 7-21, 3-2-[4-(4-quinolin-2-ylpiperazin-1-yl)butyl]-3H-quinazolin-4-one] were, in that order, 97.4% and 95%.
